Experimental data reported in the supplement of paper PMC4862054.

Experiments:
BT-474 [1] = details: 72 h
How it was run: (§1)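 In this assay, breast cancer cell lines spent 72 h with compound at 5 concentrations in 10-fold steps over a compound-specific 10,000-fold range. The first readout was cell death by CellTox Green fluorescence, and the second was viability by CellTiter-Glo luminescence, each normalised per plate to 0.1 % DMSO and a positive kill control. EC50 came from the dose-response curves, censored at the top concentration.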

BT-549 [2] = details: 72 h
How it was run: as §1

CAL-120 [3] = details: 72 h
How it was run: as §1

CAL-148 [4] = details: 72 h
How it was run: as §1

CAL-51 [5] = details: 72 h
How it was run: as §1

CAL-85-1 [6] = details: 72 h
How it was run: as §1

DU-4475 [7] = details: 72 h
How it was run: as §1

HCC1143 [8] = details: 72 h
How it was run: as §1

HCC1599 [9] = details: 72 h
How it was run: as §1

HCC1937 [10] = details: 72 h
How it was run: as §1

HDQ-P1 [11] = details: 72 h
How it was run: as §1

Hs578T [12] = details: 72 h
How it was run: as §1

MCF-10A [13] = details: 72 h
How it was run: as §1

MDA-MB-231 [14] = details: 72 h
How it was run: as §1

MDA-MB-436 [15] = details: 72 h
How it was run: as §1

MDA-MB-453 [16] = details: 72 h
How it was run: as §1

MDA-MB-468 [17] = details: 72 h
How it was run: as §1

MFM-223 [18] = details: 72 h
How it was run: as §1

SK-BR-3 [19] = details: 72 h
How it was run: as §1

CAL-148 [20] = details: 72 h; remark: listed apart in the source
How it was run: (§2)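 Viability of breast cancer cell lines was measured with CellTiter-Blue after 72 h of incubation on compound-loaded 384-well plates. Cells were seeded in 20 µl onto compound dissolved in 5 µl medium, and 2.5 µl reagent was added for 2 h at 37 °C before reading at 560/590 nm. EC50 was fitted from percent-inhibition dose-response data censored at the highest concentration, normalised per plate to vehicle and a positive kill control, with zero drug sensitivity score rows dropped.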

CAL-51 [21] = details: 72 h; remark: listed apart in the source
How it was run: as §2

CAL-85-1 [22] = details: 72 h; remark: listed apart in the source
How it was run: as §2

DU-4475 [23] = details: 72 h; remark: listed apart in the source
How it was run: as §2

HDQ-P1 [24] = details: 72 h; remark: listed apart in the source
How it was run: as §2

MDA-MB-453 [25] = details: 72 h; remark: listed apart in the source
How it was run: as §2

BT-474 [26] = details: 72 h; remark: listed apart in the source
How it was run: as §2

BT-549 [27] = details: 72 h; remark: listed apart in the source
How it was run: as §2

CAL-120 [28] = details: 72 h; remark: listed apart in the source
How it was run: as §2

HCC1143 [29] = details: 72 h; remark: listed apart in the source
How it was run: as §2

HCC1599 [30] = details: 72 h; remark: listed apart in the source
How it was run: as §2

HCC1937 [31] = details: 72 h; remark: listed apart in the source
How it was run: as §2

Hs578T [32] = details: 72 h; remark: listed apart in the source
How it was run: as §2

MDA-MB-231 [33] = details: 72 h; remark: listed apart in the source
How it was run: as §2

MDA-MB-436 [34] = details: 72 h; remark: listed apart in the source
How it was run: as §2

MDA-MB-468 [35] = details: 72 h; remark: listed apart in the source
How it was run: as §2

MFM-223 [36] = details: 72 h; remark: listed apart in the source
How it was run: as §2

SK-BR-3 [37] = details: 72 h; remark: listed apart in the source
How it was run: as §2

BT-474 [38] = details: 72 h; remark: listed apart in the source
Procedure: (§3)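 Drug sensitivity and resistance testing (DSRT) of breast cancer cell lines in 384-well plates, 5 concentrations in 10-fold dilutions over a compound-specific 10,000-fold range. After 72 h, cytotoxicity was read by CellTox Green fluorescence and viability by CellTiter-Glo luminescence (multiplexed), normalised to DMSO and benzethonium chloride controls. EC50 is the inflection point of the fitted dose-response curve (bottom asymptote free, so it can be relative for partial curves) and is censored at the highest tested concentration. Rows with DSS 0 (no meaningful response) were excluded.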

CAL-51 [39] = details: 72 h; remark: listed apart in the source
Procedure: as §3

CAL-85-1 [40] = details: 72 h; remark: listed apart in the source
Procedure: as §3

HCC1599 [41] = details: 72 h; remark: listed apart in the source
Procedure: as §3

HCC1937 [42] = details: 72 h; remark: listed apart in the source
Procedure: as §3

HDQ-P1 [43] = details: 72 h; remark: listed apart in the source
Procedure: as §3

Hs578T [44] = details: 72 h; remark: listed apart in the source
Procedure: as §3

MCF-10A [45] = details: 72 h; remark: listed apart in the source
Procedure: as §3

MDA-MB-436 [46] = details: 72 h; remark: listed apart in the source
Procedure: as §3

MDA-MB-468 [47] = details: 72 h; remark: listed apart in the source
Procedure: as §3

MFM-223 [48] = details: 72 h; remark: listed apart in the source
Procedure: as §3

MDA-MB-453 [49] = test: drug sensitivity score (DSS), CellTox Green (DSS (AUC-based score)); higher = stronger drug effect (viability inhibition or cytotoxicity); extreme values may be limits of the assay; details: incubation time: 72 h
How it was run: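 Each compound occupied 5 concentrations in 10-fold steps over its own 10,000-fold range in 384-well plates, into which breast cancer cell lines were seeded as 20 µl suspension. Following 72 h of incubation, CellTox Green fluorescence (485/520 nm) was measured, and CellTiter-Glo luminescence was measured after 10 min at room temperature. Plates were individually normalised to 0.1 % DMSO and a positive kill control. From the area under the fitted dose-response curve, a drug sensitivity score was calculated.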

BT-549 [50] = details: 72 h; remark: listed apart in the source
Procedure: as §3

MDA-MB-453 [51] = details: 72 h; remark: listed apart in the source
Procedure: as §3

In the case of `O=C(Cc1ccc(-c2ccc(OCCN3CCOCC3)cc2)cn1)NCc1ccccc1` [KX2-391], the “EC50, CellTiter-Glo” value (BT-474 [1]) is reported as 70 nM, the “EC50, CellTiter-Glo” value (BT-549 [2]) is reported as 44.7 nM and the “EC50, CellTiter-Glo” value (CAL-120 [3]) is reported as 57.1 nM. For the same molecule, the “EC50, CellTiter-Glo” value (CAL-148 [4]) was 35.8 nM, the “EC50, CellTiter-Glo” value (CAL-51 [5]) was 16.8 nM and the “EC50, CellTiter-Glo” value (CAL-85-1 [6]) was 23 nM. The “EC50, CellTiter-Glo” value (DU-4475 [7]) was 34.7 nM, the “EC50, CellTiter-Glo” value (HCC1143 [8]) was 28.2 nM and the “EC50, CellTiter-Glo” value (HCC1599 [9]) was 61.9 nM. For the same molecule, the “EC50, CellTiter-Glo” value (HCC1937 [10]) was 34.5 nM, the “EC50, CellTiter-Glo” value (HDQ-P1 [11]) was 26.5 nM and the “EC50, CellTiter-Glo” value (Hs578T [12]) was 49.6 nM. For the same molecule, the “EC50, CellTiter-Glo” value (MCF-10A [13]) was 29.6 nM, the “EC50, CellTiter-Glo” value (MDA-MB-231 [14]) was 75.9 nM and the “EC50, CellTiter-Glo” value (MDA-MB-436 [15]) was 51.4 nM. The “EC50, CellTiter-Glo” value (MDA-MB-453 [16]) was 55.6 nM, the “EC50, CellTiter-Glo” value (MDA-MB-468 [17]) was 44.2 nM and the “EC50, CellTiter-Glo” value (MFM-223 [18]) was 83.9 nM. For the same molecule, the “EC50, CellTiter-Glo” value (SK-BR-3 [19]) was 20.1 nM, the “EC50, CellTiter-Blue viability” value (CAL-148 [20]) was 47.1 nM and the “EC50, CellTiter-Blue viability” value (CAL-51 [21]) was 63 nM. For the same molecule, the “EC50, CellTiter-Blue viability” value (CAL-85-1 [22]) was 23.1 nM, the “EC50, CellTiter-Blue viability” value (DU-4475 [23]) was 46 nM and the “EC50, CellTiter-Blue viability” value (HDQ-P1 [24]) was 53.6 nM. For the same molecule, the “EC50, CellTiter-Blue viability” value (MDA-MB-453 [25]) was 35.1 nM, the “EC50, CellTiter-Blue viability” value (BT-474 [26]) was 47.9 nM and the “EC50, CellTiter-Blue viability” value (BT-549 [27]) was 37.8 nM. For the same molecule, the “EC50, CellTiter-Blue viability” value (CAL-120 [28]) was 31.3 nM, the “EC50, CellTiter-Blue viability” value (HCC1143 [29]) was 13.6 nM and the “EC50, CellTiter-Blue viability” value (HCC1599 [30]) was 212 nM. The “EC50, CellTiter-Blue viability” value (HCC1937 [31]) was 47.2 nM, the “EC50, CellTiter-Blue viability” value (Hs578T [32]) was 27.9 nM and the “EC50, CellTiter-Blue viability” value (MDA-MB-231 [33]) was 43.1 nM. For the same molecule, the “EC50, CellTiter-Blue viability” value (MDA-MB-436 [34]) was 51.4 nM, the “EC50, CellTiter-Blue viability” value (MDA-MB-468 [35]) was 40.3 nM and the “EC50, CellTiter-Blue viability” value (MFM-223 [36]) was 57.4 nM. The “EC50, CellTiter-Blue viability” value (SK-BR-3 [37]) was 34.8 nM, the “EC50, CellTox Green” value (BT-474 [38]) was 307 nM and the “EC50, CellTox Green” value (CAL-51 [39]) was 23.8 nM. The “EC50, CellTox Green” value (CAL-85-1 [40]) was 22.1 nM, the “EC50, CellTox Green” value (HCC1599 [41]) was 267 nM and the “EC50, CellTox Green” value (HCC1937 [42]) was 5000 nM. For the same molecule, the “EC50, CellTox Green” value (HDQ-P1 [43]) was 4110 nM, the “EC50, CellTox Green” value (Hs578T [44]) was 523 nM and the “EC50, CellTox Green” value (MCF-10A [45]) was 59.8 nM. The “EC50, CellTox Green” value (MDA-MB-436 [46]) was over 10000 nM, the “EC50, CellTox Green” value (MDA-MB-468 [47]) was 19.4 nM and the “EC50, CellTox Green” value (MFM-223 [48]) was 328 nM. The drug sensitivity score (MDA-MB-453 [49]) was 0.
For `C=CCc1cccc(/C=N/NC(=O)CN2CCN(Cc3ccccc3)CC2)c1O` [PAC-1], the “EC50, CellTiter-Glo” value (BT-474 [1]) was 3910 nM, the “EC50, CellTiter-Glo” value (BT-549 [2]) was 1230 nM and the “EC50, CellTiter-Glo” value (CAL-120 [3]) was 3790 nM. For the same molecule, the “EC50, CellTiter-Glo” value (CAL-148 [4]) was 6670 nM, the “EC50, CellTiter-Glo” value (CAL-51 [5]) was 1620 nM and the “EC50, CellTiter-Glo” value (CAL-85-1 [6]) was 5250 nM. For the same molecule, the “EC50, CellTiter-Glo” value (DU-4475 [7]) was 4350 nM, the “EC50, CellTiter-Glo” value (HCC1143 [8]) was 6700 nM and the “EC50, CellTiter-Glo” value (HCC1599 [9]) was 7690 nM. The “EC50, CellTiter-Glo” value (HCC1937 [10]) was 5300 nM, the “EC50, CellTiter-Glo” value (HDQ-P1 [11]) was 4980 nM and the “EC50, CellTiter-Glo” value (MDA-MB-231 [14]) was 3100 nM. For the same molecule, the “EC50, CellTiter-Glo” value (MDA-MB-436 [15]) was 3480 nM, the “EC50, CellTiter-Glo” value (MDA-MB-453 [16]) was 2610 nM and the “EC50, CellTiter-Glo” value (MDA-MB-468 [17]) was 4580 nM. The “EC50, CellTiter-Glo” value (MFM-223 [18]) was 8680 nM, the “EC50, CellTiter-Glo” value (SK-BR-3 [19]) was 5200 nM and the “EC50, CellTox Green” value (BT-474 [38]) was 3520 nM. For the same molecule, the “EC50, CellTox Green” value (BT-549 [50]) was 1190 nM, the “EC50, CellTox Green” value (CAL-51 [39]) was 413 nM and the drug sensitivity score (MDA-MB-453 [49]) was 0.
In the case of `C=CC(=O)N1CCC[C@@H](n2nc(-c3ccc(Oc4ccccc4)cc3)c3c(N)ncnc32)C1` [Ibrutinib], the “EC50, CellTiter-Glo” value (CAL-51 [5]) is reported as 415 nM, the “EC50, CellTiter-Glo” value (CAL-85-1 [6]) is reported as 493 nM and the “EC50, CellTiter-Glo” value (HDQ-P1 [11]) is reported as 168 nM. For the same molecule, the “EC50, CellTiter-Glo” value (MCF-10A [13]) was 198 nM, the “EC50, CellTiter-Glo” value (MDA-MB-453 [16]) was 10.5 nM and the “EC50, CellTiter-Glo” value (SK-BR-3 [19]) was 11.9 nM. The “EC50, CellTox Green” value (CAL-51 [39]) was over 1000 nM, the “EC50, CellTox Green” value (CAL-85-1 [40]) was 416 nM and the “EC50, CellTox Green” value (HDQ-P1 [43]) was over 1000 nM. For the same molecule, the “EC50, CellTox Green” value (MDA-MB-453 [51]) was 943 nM and the drug sensitivity score (MDA-MB-453 [49]) was 1.03.
